In patent publication US20250326744A1, “PIPERAZINE DERIVATIVE OR SALT THEREOF, AND PHARMACEUTICAL COMPOSITION” (priority 2022, published 2025):
Where a name gives a salt, the structure may show the parent alone.

Tests used:
S-3769 strain = test: Combinational effect with antibacterial agent against Pseudomonas aeruginosa (Test Examples 2 and 4): S-3769 strain with AMK or GM at 1/4 MIC, EC99; type: cell-based; conditions: for EC99, combinational effect with AMK, S-3769 strain / EC99, S-3769 strain, AMK: combined with AMK at 1/4 MIC; for EC99, combinational effect with AMK, S-3769 strain / EC99, combinational effect with GM, S-3769 strain: Test Example 4; for EC99, combinational effect with GM, S-3769 strain / EC99, S-3769 strain, GM: combined with GM at 1/4 MIC; for EC99, S-3769 strain, AMK / EC99, S-3769 strain, GM: Table 52, Test Example 2, 16 to 20 hours culture, OD595
Procedure: (§1) The combinational effect of the test compound with the antibacterial agent against Pseudomonas aeruginosa was evaluated.
The […] was used for evaluating the inhibitory ability against MexXY-OprM. AMK or GM was used as the antibacterial agent used in combination.
The S-3769 strain is a clinically isolated strain collected from a domestic medical institution, and is a strain in which the expression level of MexY is accelerated.
(§2) AMK and GM are aminoglycoside-based antibacterial agents, and are drugs that are not discharged outside the bacteria by MexB but are discharged outside the bacteria by MexY For the culture of each Pseudomonas aeruginosa strain, a 96-well plate (amount of culture medium per well: 100 μL) was used, and cation-adjusted Mueller Hinton broth (CAMHB) was used. The inoculation amount of the bacteria was set to 10^4 to 5 CFU/well.
(§3) The mexB (PA) strain and the S-3769 strain were cultured for 16 to 20 hours in a culture medium to which each antibacterial agent and test compounds at various concentrations (0 to 800 μM) were added, and the proliferation of the bacterial strains was evaluated by optical turbidity at 595 nm (OD595). The concentration of the antibacterial agent in the culture medium was set to ¼ MIC.
(§4) The proliferation of bacteria in a case where the test compound and the antibacterial agent were not added was measured, and compared with the proliferation of bacteria in a case where the test compound in a case where the antibacterial agent was added at the concentration of ¼ MIC was contained, and the lowest concentration of the test compound at which the proliferation was inhibited by 99% or more was defined as the drug efflux pump inhibitory ability of the test compound as 99% inhibitory effect concentration (EC99).
(§5) The effect of suppressing the proliferation of each test compound in combination with an antibacterial agent at ¼ MIC for mexB (PA) or the S-3769 strain was evaluated as follows according to the value of EC99. • S: EC99≤12.5 μM • A: 12.5 μM<EC99≤25 μM • B: 25 μM<EC99≤100 μM • C: 100 μM<EC99
(§6) The combinational effect of the test compound with the antibacterial agent against Pseudomonas aeruginosa was evaluated in the same manner as in Test Example 2.

mexB (PA) strain = test: Combinational effect with antibacterial agent against Pseudomonas aeruginosa (Test Examples 2 and 4): mexB (PA) strain with LVFX, TC or AZT at 1/4 MIC, EC99; type: cell-based; conditions: for EC99, combinational effect with AZT, mexB (PA) / EC99, combinational effect with LVFX, mexB (PA) / EC99, combinational effect with TC, mexB (PA): mexB (PA) strain, Test Example 4; for EC99, combinational effect with AZT, mexB (PA) / EC99, mexB (PA), AZT: combined with AZT at 1/4 MIC; for EC99, combinational effect with LVFX, mexB (PA) / EC99, mexB (PA), LVFX: combined with LVFX at 1/4 MIC; for EC99, combinational effect with TC, mexB (PA) / EC99, mexB (PA), TC: combined with TC at 1/4 MIC; for EC99, mexB (PA), AZT / EC99, mexB (PA), LVFX / EC99, mexB (PA), TC: Table 52, Test Example 2, 16 to 20 hours culture, OD595
Procedure: as §1
For the evaluation of the inhibitory ability against MexAB-OprM, a mutant strain of Pseudomonas aeruginosa in which MexAB-OprM was expressed as a main drug efflux pump (hereinafter, referred to as a “mexB (PA) strain”) was used. LVFX, TC, or AZT was used as the antibacterial agent used in combination.
The mexB (PA) strain is a strain produced by deleting the genes of MexCD-OprJ, MexEF-OprN, and MexXY in the drug efflux pump of Pseudomonas aeruginosa described in FEMS Microbiology Letters, 2001, Vol. 202, pp. 139 to 143. In the mexB (PA) strain, an expression level of MexB as a drug efflux pump is accelerated.
TC is a tetracycline-based antibacterial agent and is a drug that is discharged outside the bacteria by MexB. AZT is a monobactam-based antibacterial agent and is a drug that is discharged outside the bacteria by MexB.
as §2, §3, §4, §5, §6

SMILES	EC99, combinational effect with AMK, S-3769 strain (S-3769 strain)	EC99, combinational effect with GM, S-3769 strain (S-3769 strain)	EC99, combinational effect with AZT, mexB (PA) (mexB (PA) strain)	EC99, combinational effect with LVFX, mexB (PA) (mexB (PA) strain)	EC99, combinational effect with TC, mexB (PA) (mexB (PA) strain)	EC99, S-3769 strain, AMK (S-3769 strain)	EC99, S-3769 strain, GM (S-3769 strain)	EC99, mexB (PA), AZT (mexB (PA) strain)	EC99, mexB (PA), LVFX (mexB (PA) strain)	EC99, mexB (PA), TC (mexB (PA) strain)
CCOc1cccc(F)c1CN1CCN(C(=O)[C@H](N)C2CCN(CCc3cc(Cl)ccc3-c3cnc(NC)c(C)c3)CC2)CC1 [Example 563, Hydrobromide of (R)-2-amino-2-(1-(5-chloro-2-(5-methyl-6-(methylamino)pyridine-3-yl)phenethyl)piperidin-4-yl)-1-(4-(2-ethoxy-6-fluorobenzyl)piperazin-1-yl)ethan-1-one]	A (12.5 μM<EC99≤25 μM)	A (12.5 μM<EC99≤25 μM)	C (100 μM<EC99)	C (100 μM<EC99)	C (100 μM<EC99)					
CCOc1cccc(F)c1CN1CCN(C(=O)[C@H](N)C2CCN(CCc3cc(Cl)ccc3-c3cccc(N)c3)CC2)CC1 [Example 99, Hydrobromide of (R)-2-amino-2-(1-(2-(3′-amino-4-chloro-[1,1′-biphenyl]-2-yl)ethyl)piperidin-4-yl)-1-(4-(2-ethoxy-6-fluorobenzyl)piperazin-1-yl)ethan-1-one]						S (EC99≤12.5 μM)	S (EC99≤12.5 μM)	B (25 μM<EC99≤100 μM)	A (12.5 μM<EC99≤25 μM)	A (12.5 μM<EC99≤25 μM)
CCOc1cccc(F)c1CN1CCN(C(=O)[C@H](N)C2CCN(CCc3cc(Cl)ccc3-c3cccc(S(F)(F)(F)(F)F)c3)CC2)CC1 [Example 57, Hydrobromide of (R)-2-amino-2-(1-(2-(4-chloro-3′-(pentafluoro-λ6-sulfanyl)-[1,1′-biphenyl]-2-yl)ethyl)piperidin-4-yl)-1-(4-(2-ethoxy-6-fluorobenzyl)piperazin-1-yl) ethan-1-one]						B (25 μM<EC99≤100 μM)	B (25 μM<EC99≤100 μM)	C (100 μM<EC99)	C (100 μM<EC99)	B (25 μM<EC99≤100 μM)
CCOc1cccc(F)c1CN1CCN(C(=O)[C@H](N)C2CCN(CCc3cc(Cl)ccc3-c3ccccc3O)CC2)CC1 [Example 107, (R)-2-amino-2-(1-(2-(4-chloro-2′-hydroxy-[1,1′-biphenyl]-2-yl)ethyl)piperidin-4-yl)-1-(4-(2-ethoxy-6-fluorobenzyl)piperazin-1-yl)ethan-1-one]						A (12.5 μM<EC99≤25 μM)	A (12.5 μM<EC99≤25 μM)	A (12.5 μM<EC99≤25 μM)	A (12.5 μM<EC99≤25 μM)	A (12.5 μM<EC99≤25 μM)
CSc1ccccc1CN1CCN(C(=O)[C@H](N)C2CCN(CCc3cc(Cl)ccc3C3=CCCNC3)CC2)CC1 [Example 553, Hydrobromide of (R)-2-amino-2-(1-(5-chloro-2-(1,2,5,6-tetrahydropyridin-3-yl)phenethyl)piperidin-4-yl)-1-(4-(2-(methylthio)benzyl)piperazin-1-yl)ethan-1-one]	S (EC99≤12.5 μM)	S (EC99≤12.5 μM)	A (12.5 μM<EC99≤25 μM)	S (EC99≤12.5 μM)	S (EC99≤12.5 μM)					
CCOc1ccncc1CN1CCN(C(=O)[C@H](N)C2CCN(CCc3cc(Cl)ccc3-c3ccccc3)CC2)CC1 [Example 512, Hydrobromide of (R)-2-amino-2-(1-(2-(4-chloro-[1,1-biphenyl]-2-yl)ethyl)piperidin-4-yl)-1-(4-((4-ethoxypyridin-3-yl)methyl)piperazin-1-yl)ethan-1-one]	A (12.5 μM<EC99≤25 μM)	A (12.5 μM<EC99≤25 μM)	B (25 μM<EC99≤100 μM)	B (25 μM<EC99≤100 μM)	B (25 μM<EC99≤100 μM)					
CCOc1cccc(F)c1CN1CCN(C(=O)[C@H](N)C2CCN(CCc3cc(Cl)ccc3-c3ccc(C)cc3)CC2)CC1 [Example 69, Hydrobromide of (R)-2-amino-2-(1-(2-(4-chloro-4′-methyl-[1,1′-biphenyl]-2-yl)ethyl)piperidin-4-yl)-1-(4-(2-ethoxy-6-fluorobenzyl)piperazin-1-yl)ethan-1-one]						S (EC99≤12.5 μM)	S (EC99≤12.5 μM)	C (100 μM<EC99)	C (100 μM<EC99)	B (25 μM<EC99≤100 μM)
CCOc1cccc(F)c1CN1CCN(C(=O)[C@H](N)C2CCN(CCc3cc(Cl)ccc3-c3cc(N)ccc3F)CC2)CC1 [Example 559, Hydrobromide of (R)-2-amino-2-(1-(2-(5′-amino-4-chloro-2′-fluoro-[1,1-biphenyl]-2-yl)ethyl)piperidin-4-yl)-1-(4-(2-ethoxy-6-fluorobenzyl)piperazin-1-yl)ethan-1-one]	A (12.5 μM<EC99≤25 μM)	S (EC99≤12.5 μM)	S (EC99≤12.5 μM)	S (EC99≤12.5 μM)	S (EC99≤12.5 μM)					
CCOc1cccc(F)c1CN1CCN(C(=O)[C@H](N)C2CCN(CCc3cc(Cl)ccc3-c3csc4ccccc34)CC2)CC1 [Example 550, Hydrobromide of (R)-2-amino-2-(1-(2-(benzo[b]thiophen-3-yl)-5-chlorophenethyl)piperidin-4-yl)-1-(4-(2-ethoxy-6-fluorobenzyl)piperazin-1-yl)ethan-1-one]	A (12.5 μM<EC99≤25 μM)	A (12.5 μM<EC99≤25 μM)	A (12.5 μM<EC99≤25 μM)	S (EC99≤12.5 μM)	A (12.5 μM<EC99≤25 μM)					
N[C@@H](C(=O)N1CCN(Cc2cccc3c2OCC3)CC1)C1CCN(CCc2cc(Cl)ccc2-c2ccccc2)CC1 [Example 38, Hydrobromide of (R)-2-amino-2-(1-(2-(4-chloro-[1,1′-biphenyl]-2-yl)ethyl)piperidin-4-yl)-1-(4-((2,3-dihydrobenzofuran-7-yl)methyl)piperazin-1-yl)ethan-1-one]						A (12.5 μM<EC99≤25 μM)	A (12.5 μM<EC99≤25 μM)	A (12.5 μM<EC99≤25 μM)	C (100 μM<EC99)	B (25 μM<EC99≤100 μM)
